Data reported in US20240180872A1, “METHODS AND COMPOUNDS OF CANNABIDIOL, MELATONIN AND AKBA FOR TREATING PANCREATIC CANCER” (priority 2021, published 2024).

What was measured:
[1] = test system: U251 Glioblastoma cell line; experiment: Cytotoxicity assay (MTT, 72 hours, daily administration) in U251; assay type: cell-based; settings: Homo sapiens, U-251, read-out: % VIABILITY ± S.D.
Source text: (§1) The combinations were effective in other human tumor cell lines and we tested in glioblastoma cell line and endometrial cancer cell Additional tests include data obtained from two independent experiments, six wells for dose.

MIAPaCa-2 cell line = experiment: Cytotoxicity assay (MTT, 72 hours, daily administration) in MIAPaCa-2; settings: Homo sapiens, MIA PaCa-2, read-out: % VIABILITY ± S.D.
Method: (§2) Human pancreatic ductal adenocarcinoma (PANC-1 and MIAPaCa-2) cell lines were purchased by Sigma Aldrich (Milan, Italy) and cultured in DMEM high glucose medium (EuroClone, Milan, Italy) supplemented with 10% of fetal bovine serum (FBS), 2 mM L-glutamine, 100 IU/mL penicillin, 100 mg streptomycin and 1 mM sodium pyruvate. Cell lines were maintained at 37° C. with 5% CO2 and 95% of humidity.
(§3) 3×10^4 cells/mL were seeded in 96-well plates in a final volume of 100 L/well. After one day of incubation, compounds or vehicles, alone or in combination, were added and six replicates were used for each treatment and all experiments were repeated three times. In all the experiments, the treatment was daily added, after washing with fresh medium. After 72 hours cell viability was investigated by adding 0.8 mg/mL of 3-[4,5-dimethylthiazol-2-yl]-2,5 diphenyl tetrazolium bromide (MTT) (Sigma Aldrich) to the media. After 3 h the supernatant was removed, and the pellet of salt crystals was solubilized with 100 μL/well of DMSO. The absorbance of the sample against a background control was measured at 570 nm using an ELISA reader microliter plate (BioTek Instruments, Winooski, VT, USA).
(§4) Cytotoxicity in PDAC cell lines: The effect of CBD, MLT and AKBA in reducing cell viability was evaluated at 72 hours, post daily administration, in PDAC cell lines. Cells were treated with different doses of CBD, MLT and AKBA (up to 1 mg) and percentage of cell viability was evaluated by the MTT assay. […] The compounds were administered daily for 72 hours, as in previous experiments at the desired doses. […] MTT assay was used to analyse the cell cytotoxicity.

[2] = test system: pancreatic adenocarcinoma associated genes; experiment: TaqMan Array gene expression in PANC-1, normalized for GAPDH; settings: 24 hs, CBD 3.8, MLT 200, AKBA 7.5 micrograms/ml
Method: Total RNA from untreated or CBD, MLT, AKBA alone and in combination treated cell lines was extracted using Rneasy Mini kit (Qiagen, Milan, Italy). One microgram of total RNA from each sample was subjected to reverse transcription in a total volume of 20 μL using the High-Capacity cDNA Archive Kit (Applied Biosystem, Foster City, […], USA) according to the instructions. cDNAs were analyzed by qRT-PCR performed using an IQ5 Multicolor Real time PCR Detection system. Quantitative real-time gene expression was performed with the TaqMan® Array Human Pancreatic Adenocarcinoma 96-well Plate, containing 92 assays to pancreatic adenocarcinoma associated genes and 4 assays to candidate endogenous control genes, was purchased (Thermo Fisher, Grand Island, NY, USA) and used to evaluate the treatments in modulating PDAC-related genes (Table 1). Measurement of different housekeeping genes (GAPDH; HPRT1; GUSB) on the samples was used to normalize mRNA content. The gene expression levels of treated cell lines were expressed as relative fold compared with untreated or vehicle-treated cells.
To elucidate the molecular events induced by CBD, MLT and AKBA alone and in combination, 92 genes involved in PDAC progression and aggressiveness were evaluated by Taqman Array. Both cell lines were treated with CBD, MLT and AKBA alone and in combination, and the molecular pathways of PDAC associated gene were evaluated.
Target mRNA levels were normalized for GAPDH expression.

[3] = test system: PCEM004a endometrial cancer cell line; experiment: Cytotoxicity assay (MTT, 72 hours, daily administration) in PCEM004a; assay type: cell-based; settings: Homo sapiens, read-out: % VIABILITY ± S.D.
Source text: as §1

PANC-1 cell line = experiment: Cytotoxicity assay (MTT, 72 hours, daily administration) in PANC-1; settings: Homo sapiens, PANC-1, read-out: % VIABILITY ± S.D.
Method: as §2, §3, §4

SMILES: C=C(C)[C@@H]1CCC(C)=C[C@H]1c1c(O)cc(CCCCC)cc1O [CBD, 2-[(1R,6R)-3-methyl-6-prop-1-en-2-ylcyclohex-2-en-1-yl]-5-pentylbenzene-1,3-diol]
- viability at 1.9 µg/mL ([1]; CBD 1.9 micrograms/ml): 100 ± 7.1%
- viability at 3.8 µg/mL ([1]; CBD 3.8 micrograms/ml): 100 ± 5.5%
- viability at 7.6 µg/mL ([1]; CBD 7.6 micrograms/ml): 97 ± 10.1%
- viability at 15.2 µg/mL ([1]; CBD 15.2 micrograms/ml): 65.2 ± 4.3%
- viability at 1.9 µg/mL (MIAPaCa-2 cell line): 74.8 ± 7.2%
- viability at 3.8 µg/mL (MIAPaCa-2 cell line): 29.5 ± 1.9%
- viability at 7.6 µg/mL (MIAPaCa-2 cell line): 9.2 ± 0.4%
- viability at 15.2 µg/mL (MIAPaCa-2 cell line): 5.2 ± 0.4%
- AKT3 mRNA relative expression ([2]; VEI 0.00): 0.00
- ARHGEF7 mRNA relative expression ([2]; VEI 0.00): 0.00
- BCL2 mRNA relative expression ([2]; VEI 0.00): 0.00
- CCND2 mRNA relative expression ([2]; VEI 0.00): 0.00
- CDKN2B mRNA relative expression ([2]; VEI 0.00): 0.35
- CYP2E1 mRNA relative expression ([2]; VEI 0.00): 0.00
- EGF mRNA relative expression ([2]; VEI 0.00): 0.00
- IGF1 mRNA relative expression ([2]; VEI 0.00): 0.00
- IL6 mRNA relative expression ([2]; VEI 0.00): 0.00
- KDR mRNA relative expression ([2]; VEI 0.00): 0.00
- KIT mRNA relative expression ([2]; VEI 0.00): 0.00
- MAPK3 mRNA relative expression ([2]; VEI 0.00): 0.01
- MMP1 mRNA relative expression ([2]; VEI 0.00): 0.00
- MMP3 mRNA relative expression ([2]; VEI 0.00): 0.00
- TGFA mRNA relative expression ([2]; VEI 0.00): 0.71
- TGFB2 mRNA relative expression ([2]; VEI 0.00): 0.08
- JAK2 mRNA relative expression ([2]; VEI 0.01): 0.01
- JAK3 mRNA relative expression ([2]; VEI 0.01): 0.01
- MMP7 mRNA relative expression ([2]; VEI 0.01): 0.01
- MMP9 mRNA relative expression ([2]; VEI 0.01): 0.01
- PK3CA mRNA relative expression ([2]; VEI 0.01): 0.02
- RAC2 mRNA relative expression ([2]; VEI 0.01): 0.01
- RB1 mRNA relative expression ([2]; VEI 0.01): 0.05
- TGFB3 mRNA relative expression ([2]; VEI 0.01): 0.00
- TGFBR1 mRNA relative expression ([2]; VEI 0.02): 0.03
- BRCA2 mRNA relative expression ([2]; VEI 0.03): 0.13
- CDKN2D mRNA relative expression ([2]; VEI 0.03): 0.03
- MDM2 mRNA relative expression ([2]; VEI 0.03): 0.04
- RHOB mRNA relative expression ([2]; VEI 0.03): 0.03
- CDKN2C mRNA relative expression ([2]; VEI 0.04): 0.03
- PK3R1 mRNA relative expression ([2]; VEI 0.04): 0.03
- PTGS2 mRNA relative expression ([2]; VEI 0.04): 0.00
- STATSB mRNA relative expression ([2]; VEI 0.04): 0.03
- MAPK1 mRNA relative expression ([2]; VEI 0.05): 0.06
- SMAD2 mRNA relative expression ([2]; VEI 0.05): 0.06
- CCND1 mRNA relative expression ([2]; VEI 0.06): 0.09
- MAP2K2 mRNA relative expression ([2]; VEI 0.06): 0.07
- PK3CD mRNA relative expression ([2]; VEI 0.06): 0.07
- TGFBR2 mRNA relative expression ([2]; VEI 0.06): 0.01
- VEGFA mRNA relative expression ([2]; VEI 0.06): 0.03
- VEGFB mRNA relative expression ([2]; VEI 0.06): 0.07
- CCNA2 mRNA relative expression ([2]; VEI 0.07): 0.01
- CCNE2 mRNA relative expression ([2]; VEI 0.07): 0.10
- EZF3 mRNA relative expression ([2]; VEI 0.07): 0.07
- SMAD4 mRNA relative expression ([2]; VEI 0.07): 0.07
- SOS1 mRNA relative expression ([2]; VEI 0.07): 0.06
- TGFB1 mRNA relative expression ([2]; VEI 0.07): 0.07
- MAP2K1 mRNA relative expression ([2]; VEI 0.08): 0.00
- MMP2 mRNA relative expression ([2]; VEI 0.08): 0.06
- VEGFC mRNA relative expression ([2]; VEI 0.08): 0.03
- CCNE1 mRNA relative expression ([2]; VEI 0.09): 0.08
- CDK2 mRNA relative expression ([2]; VEI 0.09): 0.13
- KRAS mRNA relative expression ([2]; VEI 0.09): 0.07
- RAC1 mRNA relative expression ([2]; VEI 0.09): 0.09
- REL mRNA relative expression ([2]; VEI 0.09): 0.10
- STAT2 mRNA relative expression ([2]; VEI 0.09): 0.03
- CDKN1B mRNA relative expression ([2]; VEI 0.10): 0.09
- CDKN2A mRNA relative expression ([2]; VEI 0.10): 0.22
- RELA mRNA relative expression ([2]; VEI 0.10): 0.06
- AKT1 mRNA relative expression ([2]; VEI 0.11): 0.09
- PK3CB mRNA relative expression ([2]; VEI 0.11): 0.08
- FIGF mRNA relative expression ([2]; VEI 0.14): 0.09
- TP53 mRNA relative expression ([2]; VEI 0.14): 0.24
- EZF4 mRNA relative expression ([2]; VEI 0.16): 0.16
- NFKB2 mRNA relative expression ([2]; VEI 0.16): 0.12
- EZF1 mRNA relative expression ([2]; VEI 0.17): 0.13
- SMAD3 mRNA relative expression ([2]; VEI 0.17): 0.16
- STAT1 mRNA relative expression ([2]; VEI 0.18): 0.10
- BRAF mRNA relative expression ([2]; VEI 0.22): 0.18
- BIRC5 mRNA relative expression ([2]; VEI 0.23): 0.09
- JAK1 mRNA relative expression ([2]; VEI 0.23): 0.22
- CDK4 mRNA relative expression ([2]; VEI 0.24): 0.21
- EGFR mRNA relative expression ([2]; VEI 0.24): 0.17
- RAF1 mRNA relative expression ([2]; VEI 0.25): 0.01
- CCNB1 mRNA relative expression ([2]; VEI 0.27): 0.31
- ERBB2 mRNA relative expression ([2]; VEI 0.27): 0.01
- SRC mRNA relative expression ([2]; VEI 0.27): 0.03
- GRB2 mRNA relative expression ([2]; VEI 0.31): 0.11
- BCL2L1 mRNA relative expression ([2]; VEI 0.35): 0.21
- HSP90AA1 mRNA relative expression ([2]; VEI 0.35): 0.35
- NFKB1 mRNA relative expression ([2]; VEI 0.35): 0.04
- RHOA mRNA relative expression ([2]; VEI 0.37): 0.30
- ELK1 mRNA relative expression ([2]; VEI 0.41): 0.07
- RELB mRNA relative expression ([2]; VEI 0.42): 0.23
- CDC42 mRNA relative expression ([2]; VEI 0.45): 0.04
- CDKN1A mRNA relative expression ([2]; VEI 0.49): 0.03
- AKT2 mRNA relative expression ([2]; VEI 0.50): 0.45
- HBEGF mRNA relative expression ([2]; VEI 0.53): 0.11
- NOTCH1 mRNA relative expression ([2]; VEI 1.03): 0.02
- STAT6 mRNA relative expression ([2]; VEI 1.38): 0.87
- STAT3 mRNA relative expression ([2]; VEI 4.45): 0.05
- viability at 1.9 µg/mL ([3]; CBD 1.9 micrograms/ml): 74.8 ± 7.2%
- viability at 3.8 µg/mL ([3]; CBD 3.8 micrograms/ml): 93.2 ± 4.2%
- viability at 7.6 µg/mL ([3]; CBD 7.6 micrograms/ml): 93.4 ± 5.4%
- viability at 15.2 µg/mL ([3]; CBD 15.2 micrograms/ml): 50.4 ± 3.4%
- viability at 1.9 µg/mL (PANC-1 cell line): 86.5 ± 7.1%
- viability at 3.8 µg/mL (PANC-1 cell line): 66.4 ± 5.5%
- viability at 7.6 µg/mL (PANC-1 cell line): 13.1 ± 1.1%
- viability at 15.2 µg/mL (PANC-1 cell line): 7.9 ± 0.3%
